Test results: patent publication US20180042874A1, “METHOD FOR TREATING OSTEOPOROSIS” (China Medical University, priority 2016, published 2018)

Experiments:
[1] = Body weight in ovariectomized osteoporosis rat model; format: in vivo, Sprague-Dawley (SD) female rats; settings: rat, in vivo
Procedure: Inducing osteoporosis animal models and experimental methods: • 1. 6-month old Sprague-Dawley (SD) female rats were purchased; • 2. These rats were divided into 7 groups, of which Group 1 was given pseudo-surgery, Group 2-7 underwent bilateral ovariectomies; • 3. On the 6th day after surgery, 1 mL/kg of vehicle alone was given orally to Group 1, Group 2 daily, Zoledronic Acid and Prolia were administered weekly by injections to Group 3, Group 4, respectively; 1, 3, 10 mg/kg of the compound of formula I was given orally every 3 days to Groups 5-7, respectively; • 4. Body weight and bone density were measured weekly, blood was drawn until the 118th day; • 5. Rats were then sacrificed to obtain kidneys, livers and rat tibia; • 6. Data were consolidated and processed.

RAW 264.7 cells = assay: Cytotoxicity test (MTT colorimetric assay); format: cell-based
Source text: MTT (3-(4,5-dimethylthiazol-2-yl)-2,5-diphenyl tetrazolium bromide is yellow when dissolved in a phenol red-free medium. The yellow MTT solution is reduced by succinate dehydrogenase in mitochondria of living cells into purple insoluble formazan crystals, deposited in the cells generating blue formazan crystals. The amount of formazan crystals produced is proportional to the number of viable cells (succinate dehydrogenase in dead cells is degraded and unable to reduce MTT). Formazan crystals can be dissolved in acidic isopropanol or dimethyl sulfoxide (DMSO), and an enzyme linked immunosorbent assay detector can be used to measure the light absorption value, therefore, MTT can be used as a marker for cell survival rate.
Cytotoxicity test of the compound of formula I in RAW 264.7 cells was studied and detected by using the MTT colorimetric assay. […] After being cultured in an incubator at 37° C. for 4 hours, equivalent amount of cell culture solution by volume was added into dimethyl sulfoxide to dissolve MTT Formazan, 100 μl was respectively collected and placed in a 96 well-plate, and the light absorption value at 570 nm was determined by using an enzyme immunosorbent assay detector. The Cell survival rate (%) was calculated by using the following formula: (light absorption value of drug-treated cells)/light absorption value of culture solution-treated cells)×100%.
Firstly, we would like to know whether the compound of formula I were toxic to RAW 264.7 cells, and concentrations appropriate for subsequent experiments were to be selected. After being treated with 0, 1, 5, 10, 20, 40, 80 μg/ml of the compound of formula I for 72 hours, detected with the MTT colorimetric assay. […] To confirm the selected concentrations of the compound of formula I would not produce cytotoxin in the subsequent experiments, 10 μg/ml, 20 μg/ml of the compound of formula I were respectively used for treatment of 3, 6, 9, 12 days, the culture solution was replaced with fresh ones of the same condition once every three days and then detected with the MTT colorimetric assay.

c-Fos = assay: Western blot of MAPK downstream protein c-Fos; format: cell-based, mouse; settings: 10 μg/ml co-treated with 100 ng/ml RANKL, 48 hours
Procedure: The effect of the compound of formula I on the protein expression of osteoclast MAPKs pathways induced by receptor activator of nuclear factor κB ligand was studied, experiments were performed by using the Western blot method; RAW 264.7 cells were rinsed in ice-cold PBS, cell lysis buffer was added, the components of the buffer solution included: 10 mM 4-(2-hydroxyethyl)-1-piperazineethanesulfonic acid (HEPES), 1.5 mM MgCl2, 0.5 mM dithiothreitol (DTT), 0.5 μg/ml leupeptin and 6.4% Nonidet P-40, reacted on ice for 15 minutes. The cells were scraped off with a spatula, collected into a 1.5 ml centrifuge tube, the cells were thoroughly broken by using a shaker; centrifuged at 12,000 rpm, 4° C. for 10 minutes; supernatant was added into a new 1.5 ml centrifuge tube; boiled with IX sodiumdodecyl sulfate (SDS) sample buffer, followed by electrophoresis using 10 to 12% SDS-PAGE. […] The transfer membrane was rinsed again and the membrane loaded with chemical luminescence reagent ECL was allowed to react with a photosensitive sheet in a darkroom for a suitable period of time, the photosensitive sheet then reacted with the developer. After the photosensitive sheet was exposed to light a band-shaped antibody-binding proteins was observed, quantified by the density of the bands. […]

SMILES: CNC(=O)N[C@]1(C)CCC[C@@]2(C)C3CC[C@@]4(C)C[C@]3(CCC21)CC4=O (single isomer, unassigned; ent-16) [compound of formula I, ent-16-oxobeyeran-19-N-methylureido]
- effect on body weight [1]: different from commercially available drugs
- cytotoxicity over time (MTT) (RAW 264.7 cells; 10 μg/ml, 3, 6, 9, 12 days): no cytotoxin was produced
- concentration above which cytotoxic (decreased survival rate) (RAW 264.7 cells; 72 hours): higher than 40 μg/ml
- IC50 (RAW 264.7 cells; Mus musculus, RAW264.7, 72 hours, 0-80 μg/ml, read-out: IC50 (cell survival rate, MTT)): ~40 mg/L
- c-Fos protein expression (c-Fos): significantly reduced
